Each compound was assayed against T1, human PTH1 receptor (Homo sapiens, UniProt Q03431) (assay: In vitro cAMP signal activity in HKRK-B7 cells (LLC-PK1 cells overexpressing the human PTH1 receptor)). Conditions: HKRK-B7 cells; compound at 1×10^−3 M; cAMP produced as percentage of that produced by hPTH(1-34) at 100 nM.
T1 sequence (Q03431 27-593): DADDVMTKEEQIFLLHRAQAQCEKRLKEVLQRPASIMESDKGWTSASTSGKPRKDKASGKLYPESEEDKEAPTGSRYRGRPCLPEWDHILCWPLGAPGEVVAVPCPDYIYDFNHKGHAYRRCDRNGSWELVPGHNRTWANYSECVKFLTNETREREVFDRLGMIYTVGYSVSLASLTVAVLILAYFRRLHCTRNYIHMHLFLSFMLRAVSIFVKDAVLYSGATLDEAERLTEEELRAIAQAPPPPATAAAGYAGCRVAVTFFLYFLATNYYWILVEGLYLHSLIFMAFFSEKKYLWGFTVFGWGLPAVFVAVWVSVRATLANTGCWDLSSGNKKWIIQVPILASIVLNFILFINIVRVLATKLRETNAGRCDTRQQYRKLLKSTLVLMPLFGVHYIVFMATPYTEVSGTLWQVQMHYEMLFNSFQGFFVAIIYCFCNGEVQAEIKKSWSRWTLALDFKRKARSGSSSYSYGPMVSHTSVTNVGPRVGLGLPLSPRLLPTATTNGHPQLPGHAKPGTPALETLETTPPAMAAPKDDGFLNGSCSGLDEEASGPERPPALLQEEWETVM
Type: cell-based

Structure (SMILES)	cAMP production activity (%)
Cc1cc(N2C(=O)CCC2CO)ccc1/C=C/S(=O)(=O)N1CCC2(CC1)N=C(c1cccc(C(F)(F)F)c1)NC2=O (stereo in doubt) [Compound 221, 8-{(E)-2-[4-((R)-2-hydroxymethyl-5-oxo-pyrrolidin-1-yl)-2-methyl-phenyl]-ethenesulfonyl}-2-(3-trifluoromethyl-phenyl)-1,3,8-triaza-spiro[4.5]dec-1-en-4-one]	103
CCCCCCC(CCC)CCC1=NC2(CCN([S@TB18](=O)(=O)/C=C/c3c(C)cc(N(C)C(N)=O)cc3C)CC2)C(=O)N1 (centres unmarked) [Compound 1126, 1-(3,5-dimethyl-4-{(E)-2-[4-oxo-2-(3-propyl-nonyl)-1,3,8-triaza-spiro[4.5]dec-1-ene-8-sulfonyl]-vinyl}-phenyl)-1-methyl-urea]	106
Cc1cc(S(N)(=O)=O)ccc1CCS(=O)(=O)N1CCC2(CC1)N=C(c1cccc(C(F)(F)F)c1)NC2=O [Compound 291, 3-methyl-4-{2-[4-oxo-2-(3-trifluoromethyl-phenyl)-1,3,8-triaza-spiro[4.5]dec-1-ene-8-sulfonyl]-ethyl}-benzenesulfonamide]	66
Cc1cc2ccc1CCS(=O)(=O)N1CCC3(CC1)N=C(NC3=O)c1cc(cc(C(F)(F)F)c1)OCCOCCNC(=O)CN(C)C2=O [Compound 1440]	10
CCCCCCCCCC1=NC2(CCN(S(=O)(=O)CCc3ccc(N4CCOCC4=O)cc3C)CC2)C(=O)N1 [Compound 657, 8-{2-[2-Methyl-4-(3-oxo-morpholin-4-yl)-phenyl]-ethanesulfonyl}-2-nonyl-1,3,8-triaza-spiro[4.5]dec-1-en-4-one]	124
Cc1cc(N(C)C(N)=O)cc(C)c1CCS(=O)(=O)N1CCC2(CC1)N=C(c1cccc(OC(F)(F)F)c1)NC2=O [Compound 935, 1-(3,5-dimethyl-4-{2-[4-oxo-2-(3-trifluoromethoxy-phenyl)-1,3,8-triaza-spiro[4.5]dec-1-ene-8-sulfonyl]-ethyl}-phenyl)-1-methyl-urea]	112
CCSCCCCCCC1=NC2(CCN([S@TB18](=O)(=O)CCc3c(C)cc(N(C)C(N)=O)cc3C)CC2)C(=O)N1 [Compound 1154, 1-(4-{2-[2-(6-ethylsulfanyl-hexyl)-4-oxo-1,3,8-triaza-spiro[4.5]dec-1-ene-8-sulfonyl]-ethyl}-3,5-dimethyl-phenyl)-1-methyl-urea]	115
Cc1cc(N(CC#N)C(N)=O)ccc1CCS(=O)(=O)N1CCC2(CC1)N=C(c1cccc(OC(F)(F)F)c1)NC2=O [Compound 876, 1-cyanomethyl-1-(3-methyl-4-{2-[4-oxo-2-(3-trifluoromethoxy-phenyl)-1,3,8-triaza-spiro[4.5]dec-1-ene-8-sulfonyl]-ethyl}-phenyl)-urea]	22
Cc1cc(C(=O)N(C)C)ccc1CCS(=O)(=O)N1CCC2(CC1)N=C(c1cccc(COCC(F)(F)C(F)F)c1)NC2=O [Compound 170, 3,N,N-trimethyl-4-(2-{4-oxo-2-[3-(2,2,3,3-tetrafluoro-propoxymethyl)-phenyl]-1,3,8-triaza-spiro[4.5]dec-1-ene-8-sulfonyl}-ethyl)-benzamide]	77
Cc1cc(C(=O)N2CCC(C)(O)CC2)cc(C)c1/C=C/S(=O)(=O)N1CCC2(CC1)N=C(c1ccc(OC(C)(C)C(F)(F)F)c(C(F)(F)F)c1)NC2=O [Compound 1197, 8-{(E)-2-[4-(4-hydroxy-4-methyl-piperidine-1-carbonyl)-2,6-dimethyl-phenyl]-ethenesulfonyl}-2-[4-(2,2,2-trifluoro-1,1-dimethyl-ethoxy)-3-trifluoromethyl-phenyl]-1,3,8-triaza-spiro[4.5]dec-1-en-4-one]	74
CNc1cc(C)c(CCS(=O)(=O)N2CCC3(CC2)N=C(CCCCCCCC(F)(F)C(F)(F)F)NC3=O)c(C)c1 [Compound 1035, 8-[2-(2,6-Dimethyl-4-methylamino-phenyl)-ethanesulfonyl]-2-(8,8,9,9,9-pentafluoro-nonyl)-1,3,8-triaza-spiro[4.5]dec-1-en-4-one]	77
Cc1cc(N(C)C(N)=O)cc(C)c1CC(F)(F)S(=O)(=O)N1CCC2(CC1)N=C(c1cccc(OC(F)(F)F)c1)NC2=O [Compound 1085, 1-(4-{2,2-Difluoro-2-[4-oxo-2-(3-trifluoromethoxy-phenyl)-1,3,8-triaza-spiro[4.5]dec-1-ene-8-sulfonyl]-ethyl}-3,5-dimethyl-phenyl)-1-methyl-urea]	100
CC(=O)Nc1ccc(CCS(=O)(=O)N2CCC3(CC2)N=C(Nc2cccc(C(F)(F)F)c2)NC3=O)c(C)c1 [Compound 1402, N-(3-methyl-4-{2-[4-oxo-2-(3-trifluoromethyl-phenylamino)-1,3,8-triaza-spiro[4.5]dec-1-ene-8-sulfonyl]-ethyl}-phenyl)-acetamide]	69

Further lines, results first:

cAMP production activity (%)	Structure (SMILES)
1.5	O=C1NC(C2CCCCC2)=NC12CCN(S(=O)(=O)c1cccc(Cl)c1)C2 (centres unmarked) [Compound 72, 7-(3-chloro-benzenesulfonyl)-2-cyclohexyl-1,3,7-triaza-spiro[4.4]non-1-en-4-one]
37	O=C1NC(C2CCCCC2)=NC12CCN(S(=O)(=O)/C=C/c1cc3cc[nH]c3cc1C(F)(F)F)CC2 [Compound 492, 2-cyclohexyl-8-[(E)-2-(6-trifluoromethyl-1H-indol-5-yl)-ethenesulfonyl]-1,3,8-triaza-spiro[4.5]dec-1-en-4-one]
46	CNC1CCN(C(=O)c2ccc(CCS(=O)(=O)N3CCC4(CC3)N=C(c3cccc(C(F)(F)F)c3)NC4=O)c(C)c2)C1 (centres unmarked) [Compound 444, 8-{2-[2-Methyl-4-(3-methylamino-pyrrolidine-1-carbonyl)-phenyl]-ethanesulfonyl}-2-(3-trifluoromethyl-phenyl)-1,3,8-triaza-spiro[4.5]dec-1-en-4-one]
93	Cc1cc(C(=O)N2CCC(C)(O)CC2)cc(C)c1CCS(=O)(=O)N1CCC2(CC1)N=C(C1CCC(C)CC1)NC2=O (centres unmarked) [Compound 1382, 8-{2-[4-(4-hydroxy-4-methyl-piperidine-1-carbonyl)-2,6-dimethyl-phenyl]-ethanesulfonyl}-2-(4-methyl-cyclohexyl)-1,3,8-triaza-spiro[4.5]dec-1-en-4-one]
38	O=C1NC(C2CCCCC2)=NC12CCN(S(=O)(=O)/C=C/c1cccc3[nH]ccc13)CC2 [Compound 182, 2-cyclohexyl-8-[(E)-2-(1H-indol-4-yl)-ethenesulfonyl]-1,3,8-triaza-spiro[4.5]dec-1-en-4-one]
71	COc1cccc(C2=NC3(CCN(S(=O)(=O)CCc4ccc(C(=O)N(C)C)cc4C)CC3)C(=O)N2)c1 [Compound 80, 4-{2-[2-(3-methoxy-phenyl)-4-oxo-1,3,8-triaza-spiro[4.5]dec-1-ene-8-sulfonyl]-ethyl}-3,N,N-trimethyl-benzamide]
83	Cc1cc(N(C)c2c(N)c(=O)c2=O)cc(C)c1CCS(=O)(=O)N1CCC2(CC1)N=C([C@H]1CC[C@H](C)CC1)NC2=O [Compound 1368, 3-Amino-4-[(3,5-dimethyl-4-{2-[2-(4-methyl-cyclohexyl)-4-oxo-1,3,8-triaza-spiro[4.5]dec-1-ene-8-sulfonyl]-ethyl}-phenyl)-methyl-amino]-cyclobut-3-ene-1,2-dione]
42	Cc1ccccc1C#CS(=O)(=O)N1CCC2(CC1)N=C(C1CCCCC1)NC2=O [Compound 1376, 2-Cyclohexyl-8-(2-o-tolyl-ethynesulfonyl)-1,3,8-triaza-spiro[4.5]dec-1-en-4-one]
73	Cc1cc(N2CCCCC2=O)cc(C)c1/C=C/S(=O)(=O)N1CCC2(CC1)N=C(C1CCC(C)CC1)NC2=O (centres unmarked) [Compound 516, 8-{(E)-2-[2,6-dimethyl-4-(2-oxo-piperidin-1-yl)-phenyl]-ethenesulfonyl}-2-(4-methyl-cyclohexyl)-1,3,8-triaza-spiro[4.5]dec-1-en-4-one]
42	O=C1NC(C2CCC(CF)CC2)=NC12CCN(S(=O)(=O)c1cccc(Cl)c1)CC2 (centres unmarked) [Compound 27, 8-(3-chloro-benzenesulfonyl)-2-(4-fluoromethyl-cyclohexyl)-1,3,8-triaza-spiro[4.5]dec-1-en-4-one]
52	O=C1NC(C2CCCCC2)=NC12CCN(S(=O)(=O)/C=C/c1cccc3c1ccn3CCN1CCOCC1)CC2 [Compound 192, 2-cyclohexyl-8-{(E)-2-[1-(2-morpholin-4-yl-ethyl)-1H-indol-4-yl]-ethenesulfonyl}-1,3,8-triaza-spiro[4.5]dec-1-en-4-one]
43	O=C1NC(C2CCCCC2)=NC12CCN(S(=O)(=O)CCc1ccc3[nH]ccc3c1)CC2 [Compound 269, 2-cyclohexyl-8-[2-(1H-indol-5-yl)-ethanesulfonyl]-1,3,8-triaza-spiro[4.5]dec-1-en-4-one]
16	CC(C)(C)CCN1CCCC(C2=NC3(CCN(S(=O)(=O)c4cccc(Cl)c4)CC3)C(=O)N2)C1 (centres unmarked) [Compound 453, 8-(3-Chloro-benzenesulfonyl)-2-[1-(3,3-dimethyl-butyl)-piperidin-3-yl]-1,3,8-triaza-spiro[4.5]dec-1-en-4-one]

Reference: patent US9169254B2, “Spiroimidazolone derivative” (Chugai Seiyaku Kabushiki Kaisha, priority 2009, dated 2015)
